Laboratory results reported in ChEMBL document CHEMBL3885861, “Open TG-GATES”.

Species: Rattus norvegicus
Test: Open TG-GATES - Regimen: Single
Format: toxicity, organism-based, Sprague-Dawley
Design: regimen Single, gender Male, age 6 weeks
Details: in vivo, ip, 0.03 mg/kg, route intraperitoneal injection, dose 30 ug/Kg, dose level Low; for APTT / Bas / Eos / Fbg / Hb / Ht / Lym / MCH / MCHC / MCV / Mono / Neu / PT / Plat / RBC / Ret / WBC: tissue Blood; for KIDNEY_L / KIDNEY_R / KIDNEY_TOTAL: tissue Kidney; for LIVER: tissue Liver; for A/G / ALP / ALT / AST / BUN / CRE / Ca / Cl / DBIL / GLC / IP / K / LDH / Na / PL / RALB / TBIL / TC / TG / TP / gamma-GTP: tissue Plasma

## CC(=O)N[C@H]1[C@@H](O[C@@H]2O[C@H](CC(O)[C@H]3O[C@@H](n4ccc(=O)[nH]c4=O)[C@H](O)[C@@H]3O)[C@H](O)[C@H](O)[C@H]2NC(=O)/C=C/CC(C)C)O[C@H](CO)[C@@H](N)[C@@H]1O (some centres not stated) [TUNICAMYCIN]
3 h
  TERMINAL_BW: 222.8 g
  APTT: 22.4 s
  Bas: 0%
  Eos: 0.6%
  Fbg: 302.4 mg/dL
  Hb: 13 g/dL
  Ht: 39.3%
  Lym: 81%
  MCH: 20.5 pg
  MCHC: 33%
  MCV: 62.1 fL
  Mono: 3%
  Neu: 14.4%
  PT: 15.7 s
  Plat: 115.4 x10_4/uL
  RBC: 633.2 x10_4/ul
  Ret: 8.1%
  WBC: 99.9 x10_2/uL
  KIDNEY_L: 1 g
  KIDNEY_R: 1 g
  KIDNEY_TOTAL: 2 g
  LIVER: 10.4 g
  A/G: 1.2
  ALP: 1404.2 IU/L
  ALT: 37.6 IU/L
  AST: 69.6 IU/L
  BUN: 15.4 mg/dL
  CRE: 0.2 mg/dL
  Ca: 10.8 mg/dL
  Cl: 106 meq/L
  DBIL: 0 mg/dL
  GLC: 173.4 mg/dL
  IP: 7.5 mg/dL
  K: 4.5 meq/L
  LDH: 151.2 IU/L
  Na: 140.8 meq/L
  PL: 126 mg/dL
  RALB: 2.9 g/dL
  TBIL: 0.01 mg/dL
  TC: 71.8 mg/dL
  TG: 78.6 mg/dL
  TP: 5.4 g/dL
  gamma-GTP: 1.4 IU/L
6 h
  TERMINAL_BW: 219.6 g
  APTT: 21.8 s
  Bas: 0%
  Eos: 0.4%
  Fbg: 295 mg/dL
  Hb: 13.2 g/dL
  Ht: 39.8%
  Lym: 77.8%
  MCH: 20.9 pg
  MCHC: 33%
  MCV: 63.3 fL
  Mono: 2%
  Neu: 18.6%
  PT: 15.6 s
  Plat: 114.3 x10_4/uL
  RBC: 629.2 x10_4/ul
  Ret: 7.1%
  WBC: 90.7 x10_2/uL
  KIDNEY_L: 1 g
  KIDNEY_R: 1 g
  KIDNEY_TOTAL: 2 g
  LIVER: 9.8 g
  A/G: 1.2
  ALP: 1356.2 IU/L
  ALT: 42.6 IU/L
  AST: 74.6 IU/L
  BUN: 12.6 mg/dL
  CRE: 0.2 mg/dL
  Ca: 10.8 mg/dL
  Cl: 105.2 meq/L
  DBIL: 0 mg/dL
  GLC: 168.2 mg/dL
  IP: 8.9 mg/dL
  K: 4.4 meq/L
  LDH: 157.8 IU/L
  Na: 141.2 meq/L
  PL: 120.6 mg/dL
  RALB: 2.9 g/dL
  TBIL: 0.018 mg/dL
  TC: 69.2 mg/dL
  TG: 57.6 mg/dL
  TP: 5.3 g/dL
  gamma-GTP: 1.2 IU/L
9 h
  TERMINAL_BW: 213.3 g
  APTT: 23.6 s
  Bas: 0%
  Eos: 0.6%
  Fbg: 315.4 mg/dL
  Hb: 13.5 g/dL
  Ht: 41%
  Lym: 83.8%
  MCH: 21 pg
  MCHC: 32.9%
  MCV: 63.8 fL
  Mono: 2%
  Neu: 12.8%
  PT: 15.8 s
  Plat: 112.5 x10_4/uL
  RBC: 643.2 x10_4/ul
  Ret: 7.5%
  WBC: 85.7 x10_2/uL
  KIDNEY_L: 0.9 g
  KIDNEY_R: 1 g
  KIDNEY_TOTAL: 1.9 g
  LIVER: 8.9 g
  A/G: 1.2
  ALP: 1454.8 IU/L
  ALT: 36.4 IU/L
  AST: 71.2 IU/L
  BUN: 12.8 mg/dL
  CRE: 0.1 mg/dL
  Ca: 10.8 mg/dL
  Cl: 106 meq/L
  DBIL: 0 mg/dL
  GLC: 181 mg/dL
  IP: 9.3 mg/dL
  K: 4.4 meq/L
  LDH: 174 IU/L
  Na: 142.2 meq/L
  PL: 129 mg/dL
  RALB: 3 g/dL
  TBIL: 0.01 mg/dL
  TC: 75.4 mg/dL
  TG: 70.4 mg/dL
  TP: 5.5 g/dL
  gamma-GTP: 1 IU/L
24 h
  TERMINAL_BW: 234.5 g
  APTT: 21.3 s
  Bas: 0%
  Eos: 0.8%
  Fbg: 308.6 mg/dL
  Hb: 12.8 g/dL
  Ht: 39.3%
  Lym: 82%
  MCH: 20.1 pg
  MCHC: 32.5%
  MCV: 61.6 fL
  Mono: 2.6%
  Neu: 13.4%
  PT: 15.7 s
  Plat: 114.8 x10_4/uL
  RBC: 637.8 x10_4/ul
  Ret: 7.4%
  WBC: 75.9 x10_2/uL
  KIDNEY_L: 1 g
  KIDNEY_R: 1.1 g
  KIDNEY_TOTAL: 2.1 g
  LIVER: 11.1 g
  A/G: 1.2
  ALP: 1690.8 IU/L
  ALT: 40.4 IU/L
  AST: 67.8 IU/L
  BUN: 16.6 mg/dL
  CRE: 0.1 mg/dL
  Ca: 10.4 mg/dL
  Cl: 105.6 meq/L
  DBIL: 0 mg/dL
  GLC: 183.4 mg/dL
  IP: 7.3 mg/dL
  K: 4.6 meq/L
  LDH: 148 IU/L
  Na: 141.2 meq/L
  PL: 141.6 mg/dL
  RALB: 3 g/dL
  TBIL: 0.006 mg/dL
  TC: 76.4 mg/dL
  TG: 98.6 mg/dL
  TP: 5.6 g/dL
  gamma-GTP: 1.4 IU/L
